Columns and labels:
CYP76B1 [1] = target: T1, CYP76B1 (Helianthus tuberosus, UniProt O23976); experiment: biochemical
T1 sequence (O23976 1-490): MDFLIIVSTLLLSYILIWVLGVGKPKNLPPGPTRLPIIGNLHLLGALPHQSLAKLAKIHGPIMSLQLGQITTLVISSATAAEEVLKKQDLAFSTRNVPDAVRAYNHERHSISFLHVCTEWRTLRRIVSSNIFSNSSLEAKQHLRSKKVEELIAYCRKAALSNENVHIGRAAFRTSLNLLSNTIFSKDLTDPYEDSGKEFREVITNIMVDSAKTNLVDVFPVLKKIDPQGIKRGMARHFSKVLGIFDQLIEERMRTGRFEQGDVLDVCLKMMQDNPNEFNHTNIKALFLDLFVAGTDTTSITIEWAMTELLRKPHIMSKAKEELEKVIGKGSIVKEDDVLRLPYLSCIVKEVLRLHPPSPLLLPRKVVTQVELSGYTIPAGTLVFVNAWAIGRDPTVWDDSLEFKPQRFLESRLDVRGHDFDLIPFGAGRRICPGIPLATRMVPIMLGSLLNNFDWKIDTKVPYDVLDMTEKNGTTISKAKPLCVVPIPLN
Experimental: (§1) Spectrophotometric measurements of P450 content and substrate binding were performed as in (Gabriac et al., 1991) and SDS-PAGE was performed as in Gabriac et al. (34). Gels were stained with Coomassie Blue R-250. Alkoxycoumarins and alkoxyresorufins O-dealkylation was measured by fluorometry (Werck-Reichhart et al., 1990). The data are means ± S.D. of triplicates.
The binding of substrates into the catalytic site of a P450 usually induces a shift of its maximum of absorbance, redox potential and iron spin state (Raag and Poulos, 1989) resulting from the displacement of the water sixth ligand of the heme iron. It is easily detected by differential spectrophotometry as a so-called type I spectrum with a peak at 390 nm and a trough at 420 nm (Jefcoate, 1978). The variation of the differential absorbance ΔA390-420 versus substrate concentration allows the calculation of an apparent dissociation constant (Ks). A high ΔAmax induced by the ligand is usually an indication of correct positioning for catalysis.
CYP76B1 was 60 nM in the assays. Difference spectra were recorded after the addition of increasing concentrations of ligands to the sample cuvette. An equal volume of the herbicide solvent (DMSO) was added to the reference. Ks and ΔAmax at saturating ligand concentration were calculated from the double-reciprocal plots of ΔA(390-420 nm) versus substrate concentrations.

[2] = system: cotton seedling hypocotyl microsomes; details: read-out: Km for demethylation; cited from earlier work
CYP76B1 [3] = target: T1, CYP76B1; experiment: CYP76B1-dependent metabolism (O-/N-dealkylation) in microsomes of transformed yeast; details: for ECOD activity: Transformed yeast W(R); for Activity: + NADPH; for turnover of the dealkylation: for phenylureas first dealkylation
Experimental: BamHI and EcoRI sites were introduced by PCR just upstream of the ATG and downstream of the stop codon of the CYP76B1 coding sequence, using the primers 5′-[…] (sense) 5′-[…] (reverse) (SEQ ID NO 3 and SEQ ID NO 4 respectively). The PCR mixture was preheated for 2 min at 92° C. before addition of 1 unit of Pfu DNA polymerase (Stratagene). After 3 min additional heating at 92° C., 30 cycles of amplification were carried out as follows 1 min denaturation at 92° C., 1 min annealing at 52° C., 2 min extension at 72° C. The reaction was completed by 10 min extension at 72° C. After BamHI/EcoRI digestion, the 1470 bp coding sequence was inserted into the vector pYeDP60 (32). Transformation of Saccharomyces cerevisiae W(R), WAT11 and WAT21, and yeast growth were conducted according to Pompon et al. (32). Yeast microsomes were prepared as described in Pierrel et al. (33) with addition of 1% SAB, 2 mM β-mercaptoethanol, 10 mM sodium disulfite and 1 mM PMSF to the extraction buffer. When indicated, 0.5 mM δ-aminolevulinic acid methyl ester (Sigma) was added to the induction medium, or cells were stored at 4° C. for 24 h before preparation of the microsomes.
as §1
The conversion of other molecules was assayed by TLC or HPLC analysis of polar metabolites formed from radiolabeled compounds (Cabello-Hurtado et al., 1998a, b). NADPH-cytochrome c reductase was assayed according to (Benveniste et al., 1986). Kinetic data were fitted using the nonlinear regression program […] (Duggleby, 1984).
10 μL of non-immune serum or of serum raised against purified ECOD fraction were preincubated 2 min at room temperature with 10 μL of microsomes before addition of the reaction mix. n.d.: not detectable.
Conversion was estimated from the sum of the two polar metabolites detected after TLC analysis. Data are means + S.D. of two to four determinations. n.d.: not detected.
CYP76B1 concentrations in the MCOD, ECOD, MROD and EROD fluorometric assays were 1.5 nM or 2.1 nM, depending on the coexpressed ATR1 or yeast reductases. In the CTUDM assays, CYP76B1 concentrations were 1.7 nM (ATR1) and 8 nM (yeast), respectively. It was 12 nM for the determination of the catalytic parameters of monodemethyl-CTUDM, and 1.7 nM (ATR1) or 20 nM (yeast) in the IPUDM assays. Products were quantified by direct TLC analysis of 100 μL of the acidified incubation medium after 6 min incubation at 30° C. for the CTUDM and IPUDM assays, and after 9 min incubation for the monodemethyl-CTUDM.

[4] = system: microsomes from aminopyrine-induced H. tuberosus tuber tissues; experiment: ECOD activity in microsomes from aminopyrine-induced tuber tissues; format: biochemical, Helianthus tuberosus
Source text: Gels were stained with Coomassie Blue R-250. […] The data are means ± S.D. of triplicates.
Table 1: NADPH- and cumene hydroperoxide-dependent ECOD activity in microsomes from aminopyrine-induced H. tuberosus tuber tissues and in microsomes from control and CYP76B1-transformed yeast. Immunoinhibition by anti-ECOD antibodies.

control yeast microsomes = experiment: Metabolism in control yeast microsomes (void plasmid pYeDP60); format: biochemical, Saccharomyces cerevisiae; details: NADPH
CYP73A1 = target: T2, CYP73A1 (Helianthus tuberosus, UniProt Q04468); details: chlortoluron hydroxylation; cited from earlier work
T2 construct: host or cells: yeast-expressed, according to b197
T2 sequence (Q04468 1-505): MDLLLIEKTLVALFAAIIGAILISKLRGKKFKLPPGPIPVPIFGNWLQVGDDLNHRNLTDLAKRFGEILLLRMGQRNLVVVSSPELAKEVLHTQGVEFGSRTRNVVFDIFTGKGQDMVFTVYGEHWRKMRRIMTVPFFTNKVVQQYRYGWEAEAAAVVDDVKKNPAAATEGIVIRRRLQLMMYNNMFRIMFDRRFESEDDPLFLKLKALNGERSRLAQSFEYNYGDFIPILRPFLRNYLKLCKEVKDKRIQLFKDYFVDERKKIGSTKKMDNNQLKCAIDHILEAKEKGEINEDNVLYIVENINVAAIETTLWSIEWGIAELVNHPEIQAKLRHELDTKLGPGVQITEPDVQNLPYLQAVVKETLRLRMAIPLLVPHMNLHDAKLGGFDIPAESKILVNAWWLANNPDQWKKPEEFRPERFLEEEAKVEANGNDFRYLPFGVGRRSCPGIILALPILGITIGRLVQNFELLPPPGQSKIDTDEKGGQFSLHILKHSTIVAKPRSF

[5] = system: 7-methoxyresorufin O-dealkylase activity; experiment: Induction of 7-methoxyresorufin O-demethylase activity in tuber slices; format: cell-based, Helianthus tuberosus; details: 48 hours of treatment
Experimental: Slices of dormant tuber of Helianthus tuberosus were placed under survival conditions in oxygenated distilled water and stirred with a current of compressed air in the presence of various metals or organic compounds (effectors).
A control was performed with DMSO alone.

CYP76B1 transcripts [6] = system: CYP76B1 transcripts
CYP76B1 transcripts [7] = details: tuber tissues aged 48 h with the chemical
[8] = substrate: COc1ccc2ccc(=O)oc2c1; experiment: purified protein, by the assay type
[9] = substrate: CCOc1ccc2ccc(=O)oc2c1; experiment: purified protein, by the assay type
[10] = substrate: CCOc1ccc2nc3ccc(=O)cc-3oc2c1; experiment: purified protein, by the assay type; details: other: coexpressed yeast reductase (W(R))
[11] = substrate: CC(C)c1ccc(NC(=O)N(C)C)cc1; experiment: purified protein, by the assay type
[12] = substrate: Cc1ccc(NC(=O)N(C)C)cc1Cl; experiment: purified protein, by the assay type
[13] = 50 μM NADPH, 400 μM 7-ethoxycoumarin
[14] = other: coexpressed reductase ATR1 (WAT11)
[15] = other: coexpressed yeast reductase (W(R))

Question: For `CN(C)C(=O)Nc1ccc(Cl)c(Cl)c1` [Diuron], which Kd (CYP76B1 [1]) is on record?
Answer: 20 µM

Question: What about the Km [2] of the same molecule?
Answer: 15 µM

Question: With `CCOc1ccc2ccc(=O)oc2c1` [7-ethoxycoumarin] as the molecule, how does the Vmax (CYP76B1 [3]; ECOD, W(R) yeast microsomes, NADPH) read?
Answer: 600 pkat.pmole^−1 P450

Question: What about the ECOD activity (CYP76B1 [3]; [13]) of the same molecule?
Answer: 8.4 ± 0.05 pkat · mg^−1 protein

Question: And the ECOD activity (CYP76B1 [3]; 125 μM cumene hydroperoxide)?
Answer: no activity

Question: What about the ECOD activity (CYP76B1 [3]; NADPH + anti-ECOD antibodies) of the same molecule?
Answer: 7.5 ± 0.2 pkat · mg^−1 protein

Question: What about the Activity (CYP76B1 [3]; W(R) strain) of the same molecule?
Answer: 8.4 pkat mg-1 protein

Question: And the “turnover of the dealkylation” value (CYP76B1 [3]; W(R) strain)?
Answer: 10 min⁻¹

Question: What about the Activity (CYP76B1 [3]; WAT11 strain) of the same molecule?
Answer: 15.9 pkat mg-1 protein

Question: What about the “turnover of the dealkylation” value (CYP76B1 [3]; WAT11 strain) of the same molecule?
Answer: 30 min⁻¹

Question: What about the ECOD activity [4, 13] of the same molecule?
Answer: 5.2 ± 0.1 pkat · mg^−1 protein

Question: What about the ECOD activity ([4]; 125 μM cumene hydroperoxide) of the same molecule?
Answer: 2.5 ± 0.09 pkat · mg^−1 protein

Question: What about the ECOD activity ([4]; NADPH + anti-ECOD antibodies) of the same molecule?
Answer: 2.6 ± 0.1 pkat · mg^−1 protein

Question: What about the ECOD activity (control yeast microsomes) of the same molecule?
Answer: No activity

Question: Which Activity (CYP76B1 [3]; W(R) strain) does the source give for `Cc1ccc(NC(=O)N(C)C)cc1Cl` [Chlortoluron, N-(3-chloro-p-tolyl)-N′,N′-dimethylurea] here?
Answer: 1223 pkat mg-1 protein

Question: And the “turnover of the dealkylation” value (CYP76B1 [3]; W(R) strain)?
Answer: about 376 min^−1

Question: What about the Activity (CYP76B1 [3]; WAT11 strain) of the same molecule?
Answer: 4258 pkat mg-1 protein

Question: What about the “turnover of the dealkylation” value (CYP76B1 [3]; WAT11 strain) of the same molecule?
Answer: 803 min⁻¹

Question: What about the Kcat (CYP76B1 [3]; coexpressed reductase ATR1 (WAT11)) of the same molecule?
Answer: 13.4 s⁻¹

Question: And the Kcat (CYP76B1 [3]; coexpressed yeast reductase (W(R)))?
Answer: 6.27 s⁻¹

Question: And the “kCat of the second demethylation” value (CYP76B1 [3]; second demethylation, slow step for complete detoxification)?
Answer: 0.767 s⁻¹

Question: What about the Kd (CYP76B1 [1]) of the same molecule?
Answer: 24 µM

Question: What about the “ΔAmax × 10^−3” value (CYP76B1 [1]; CYP76B1 60 nM, at saturating ligand concentration) of the same molecule?
Answer: 5.1 × 10^−3

Question: And the “reaction turnover (hydroxylation)” value (CYP73A1)?
Answer: 0.014 min⁻¹

Question: With `Cc1c(N(C)C)c(=O)n(-c2ccccc2)n1C` [aminopyrine] as the molecule, how does the “induction of 7-methoxyresorufin O-dealkylase activity” value (“induction” below) [5] read?
Answer: very strongly induced

Question: What about the “fold more transcripts coding for CYP76B1 than for CYP73A1 or CYP81B1” value (CYP76B1 transcripts [6]) of the same molecule?
Answer: 2 to 6 fold

Question: For `CCC1(c2ccccc2)C(=O)NC(=O)NC1=O.[Na]` [phenobarbital, 5-ethyl-5-phenyl-barbituric acid, sodium salt], which “induction” value [5] is on record?
Answer: very strongly induced

Question: What about the “effect on CYP76B1 mRNA accumulation / expression” value (CYP76B1 transcripts [7]) of the same molecule?
Answer: strongly induced

Question: And the “level of CYP76B1 transcripts relative to the control” value (CYP76B1 transcripts [7])?
Answer: 6 ×

Question: Which “induction” value [5] does the source give for `[Cl][Mn][Cl]` [manganese, MnCl2] here?
Answer: very strongly induced

Question: What about the “fold more transcripts coding for CYP76B1 than for CYP73A1 or CYP81B1” value (CYP76B1 transcripts [6]) of the same molecule?
Answer: 2 to 6 fold

B1: CYP76B1 (Helianthus tuberosus) (protein)
chain: T1 sequence (O23976 1-490)
Question: Which Km [8, 14] does the source give for B1 here?
Answer: 808 µM

Question: And the kcat [8, 14]?
Answer: 0.517 s⁻¹

Question: And the kcat/Km [8, 14]?
Answer: 667 M⁻¹ s⁻¹

Question: And the Km [8, 15]?
Answer: 899 µM

Question: What about the kcat [8, 15] of the same molecule?
Answer: 0.217 s⁻¹

Question: And the kcat/Km [8, 15]?
Answer: 167 M⁻¹ s⁻¹

Question: And the Km [9, 14]?
Answer: 60 µM

Question: And the kcat [9, 14]?
Answer: 0.5 s⁻¹

Question: What about the kcat/Km [9, 14] of the same molecule?
Answer: 8330 M⁻¹ s⁻¹

Question: And the Km [9, 15]?
Answer: 74 µM

Question: And the kcat [9, 15]?
Answer: 0.167 s⁻¹

Question: What about the kcat/Km [9, 15] of the same molecule?
Answer: 2170 M⁻¹ s⁻¹

Question: What about the Km [10] of the same molecule?
Answer: 0.49 µM

Question: What about the kcat [10] of the same molecule?
Answer: 0.1 s⁻¹

Question: What about the kcat/Km [10] of the same molecule?
Answer: 200000 M⁻¹ s⁻¹

Question: What about the Km [11, 14] of the same molecule?
Answer: 289 µM

Question: And the Km [11, 15]?
Answer: 361 µM

Question: What about the Km [12, 14] of the same molecule?
Answer: 179 µM

Question: What about the Km [12, 15] of the same molecule?
Answer: 202 µM
